Measurements as given in the supplement of paper PMC10307832.

Assays:
Test in all cases: relative viability (nuclei count vs DMSO), 5 days (fraction); higher = more cells survive
[1] = compound: O=S(=O)(c1ccccc1)N(CC(F)(F)F)c1ccc(C(O)(C(F)(F)F)C(F)(F)F)cc1 + COc1cc2c(Oc3ccc(NC(=O)C4(C(=O)Nc5ccc(F)cc5)CC4)cc3F)ccnc2cc1OCCCN1CCOCC1 [Foretinib] (partner 0.25 µM)
Outline: (§1)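 For relative viability, nuclei counts in treated wells were divided by those in vehicle wells. Lung cancer cell lines had been pin-tool dosed in 1536-well plates the day after seeding and cultured for 5 days, then fixed and stained in one step (final 0.05% Triton X-100, 1% formaldehyde, 1 ug/ml Hoechst) and imaged at 4×. Doses were one drug alone or a fixed anchor-drug dose plus five library-drug doses (not always all listed) in √10 steps, and values are duplicate-plate medians.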

[2] = compound: O=S(=O)(c1ccccc1)N(CC(F)(F)F)c1ccc(C(O)(C(F)(F)F)C(F)(F)F)cc1 + NC(=O)Nc1cc(-c2cccc(F)c2)sc1C(=O)N[C@H]1CCCNC1 [AZD7762] (partner 0.2 µM)
Outline: as §1

[3] = compound: O=S(=O)(c1ccccc1)N(CC(F)(F)F)c1ccc(C(O)(C(F)(F)F)C(F)(F)F)cc1 + Nc1nc2[nH]cc(CCc3ccc(C(=O)N[C@@H](CCC(=O)O)C(=O)O)cc3)c2c(=O)[nH]1 [Pemetrexed] (partner 0.2 µM)
Outline: as §1

[4] = compound: O=S(=O)(c1ccccc1)N(CC(F)(F)F)c1ccc(C(O)(C(F)(F)F)C(F)(F)F)cc1 + O=C(CCCCCCC(=O)Nc1ccccc1)NO [Vorinostat] (partner 1 µM)
Outline: as §1

[5] = compound: C1=CC2=C(C=CC(=C2)C=C3C(=O)NC(=NCC4=CC=CS4)S3)N=C1 [RO-3306] + Cc1nc(NC(=O)N2CCC[C@H]2C(N)=O)sc1-c1ccnc(C(C)(C)C(F)(F)F)c1 [Alpelisib] (partner 2 µM)
Outline: as §1

In the case of EMC-BAC-2, the relative viability ([1]; first compound 0.8 µM) is reported as 1.22, the relative viability ([1]; first compound 2.53 µM) is reported as 1.04 and the relative viability ([1]; first compound 8 µM) is reported as 0.954. For the same cell line, the relative viability ([2]; first compound 0.8 µM) was 0.486, the relative viability ([2]; first compound 2.53 µM) was 1.09 and the relative viability ([2]; first compound 8 µM) was 1.05. For the same cell line, the relative viability ([3]; first compound 0.8 µM) was 0.402, the relative viability ([3]; first compound 2.53 µM) was 0.401 and the relative viability ([3]; first compound 8 µM) was 0.416. It also gave a relative viability ([4]; first compound 0.8 µM) of 0.336, a relative viability ([4]; first compound 2.53 µM) of 0.296 and a relative viability ([4]; first compound 8 µM) of 0.467. For the same cell line, the relative viability ([5]; first compound 0.01 µM) was 0.763, the relative viability ([5]; first compound 0.03162 µM) was 0.63 and the relative viability ([5]; first compound 0.1 µM) was 0.717. The relative viability ([5]; first compound 0.3162 µM) was 0.774 and the relative viability ([5]; first compound 1 µM) was 0.726.
Work on EPLC-272H yielded a relative viability ([1]; first compound 0.8 µM) of 0.544, a relative viability ([1]; first compound 2.53 µM) of 0.599 and a relative viability ([1]; first compound 8 µM) of 0.702. It also gave a relative viability ([2]; first compound 0.8 µM) of 0.226, a relative viability ([2]; first compound 2.53 µM) of 0.203 and a relative viability ([2]; first compound 8 µM) of 0.203. For the same cell line, the relative viability ([3]; first compound 0.8 µM) was 0.361, the relative viability ([3]; first compound 2.53 µM) was 0.41 and the relative viability ([3]; first compound 8 µM) was 0.376. The relative viability ([4]; first compound 0.8 µM) was 0.319, the relative viability ([4]; first compound 2.53 µM) was 0.476 and the relative viability ([4]; first compound 8 µM) was 0.396. For the same cell line, the relative viability ([5]; first compound 0.01 µM) was 0.927, the relative viability ([5]; first compound 0.03162 µM) was 0.79 and the relative viability ([5]; first compound 0.1 µM) was 0.909. It also gave a relative viability ([5]; first compound 0.3162 µM) of 0.829 and a relative viability ([5]; first compound 1 µM) of 0.972.
For H3255, the relative viability ([1]; first compound 0.8 µM) was 0.866, the relative viability ([1]; first compound 2.53 µM) was 0.673 and the relative viability ([1]; first compound 8 µM) was 0.786. The relative viability ([2]; first compound 0.8 µM) was 0.787, the relative viability ([2]; first compound 2.53 µM) was 0.666 and the relative viability ([2]; first compound 8 µM) was 0.76. It also gave a relative viability ([3]; first compound 0.8 µM) of 0.602, a relative viability ([3]; first compound 2.53 µM) of 0.526 and a relative viability ([3]; first compound 8 µM) of 0.502. It also gave a relative viability ([4]; first compound 0.8 µM) of 0.716, a relative viability ([4]; first compound 2.53 µM) of 0.752 and a relative viability ([4]; first compound 8 µM) of 0.667. For the same cell line, the relative viability ([5]; first compound 0.01 µM) was 0.576, the relative viability ([5]; first compound 0.03162 µM) was 0.59 and the relative viability ([5]; first compound 0.1 µM) was 0.632. For the same cell line, the relative viability ([5]; first compound 0.3162 µM) was 0.628 and the relative viability ([5]; first compound 1 µM) was 0.6.
Work on HARA yielded a relative viability ([1]; first compound 0.8 µM) of 0.845, a relative viability ([1]; first compound 2.53 µM) of 0.782 and a relative viability ([1]; first compound 8 µM) of 0.849. The relative viability ([2]; first compound 0.8 µM) was 0.437, the relative viability ([2]; first compound 8 µM) was 0.318 and the relative viability ([3]; first compound 0.8 µM) was 0.254. For the same cell line, the relative viability ([3]; first compound 8 µM) was 0.269, the relative viability ([4]; first compound 0.8 µM) was 0.507 and the relative viability ([4]; first compound 2.53 µM) was 0.509. The relative viability ([4]; first compound 8 µM) was 0.388, the relative viability ([5]; first compound 0.01 µM) was 1.05 and the relative viability ([5]; first compound 0.03162 µM) was 0.754. For the same cell line, the relative viability ([5]; first compound 0.1 µM) was 0.953, the relative viability ([5]; first compound 0.3162 µM) was 0.973 and the relative viability ([5]; first compound 1 µM) was 0.795.
HCC-15 gave a relative viability ([1]; first compound 0.8 µM) of 1.03, a relative viability ([1]; first compound 2.53 µM) of 0.951 and a relative viability ([1]; first compound 8 µM) of 0.847. The relative viability ([2]; first compound 0.8 µM) was 1.18, the relative viability ([2]; first compound 2.53 µM) was 1.17 and the relative viability ([2]; first compound 8 µM) was 1.16. For the same cell line, the relative viability ([3]; first compound 0.8 µM) was 0.213, the relative viability ([3]; first compound 2.53 µM) was 0.23 and the relative viability ([3]; first compound 8 µM) was 0.243. It also gave a relative viability ([4]; first compound 0.8 µM) of 0.748, a relative viability ([4]; first compound 2.53 µM) of 0.682 and a relative viability ([4]; first compound 8 µM) of 0.63. The relative viability ([5]; first compound 0.01 µM) was 1.03, the relative viability ([5]; first compound 0.03162 µM) was 0.815 and the relative viability ([5]; first compound 0.1 µM) was 0.869. For the same cell line, the relative viability ([5]; first compound 0.3162 µM) was 0.887 and the relative viability ([5]; first compound 1 µM) was 0.855.
In the case of HCC-44, the relative viability ([2]; first compound 0.8 µM) is reported as 1.04, the relative viability ([2]; first compound 2.53 µM) is reported as 0.988 and the relative viability ([2]; first compound 8 µM) is reported as 0.994. For the same cell line, the relative viability ([3]; first compound 0.8 µM) was 0.635, the relative viability ([3]; first compound 2.53 µM) was 0.627 and the relative viability ([3]; first compound 8 µM) was 0.702. The relative viability ([4]; first compound 0.8 µM) was 0.981, the relative viability ([4]; first compound 2.53 µM) was 0.972 and the relative viability ([4]; first compound 8 µM) was 0.953. For the same cell line, the relative viability ([5]; first compound 0.01 µM) was 0.853, the relative viability ([5]; first compound 0.03162 µM) was 0.836 and the relative viability ([5]; first compound 0.1 µM) was 0.817. The relative viability ([5]; first compound 0.3162 µM) was 1.03 and the relative viability ([5]; first compound 1 µM) was 0.832.
For HCC-78, the relative viability ([1]; first compound 0.8 µM) was 0.533, the relative viability ([1]; first compound 2.53 µM) was 0.459 and the relative viability ([1]; first compound 8 µM) was 0.466. For the same cell line, the relative viability ([2]; first compound 0.8 µM) was 0.647, the relative viability ([2]; first compound 2.53 µM) was 0.552 and the relative viability ([2]; first compound 8 µM) was 0.535. It also gave a relative viability ([3]; first compound 0.8 µM) of 1.01, a relative viability ([3]; first compound 2.53 µM) of 0.915 and a relative viability ([3]; first compound 8 µM) of 0.967. For the same cell line, the relative viability ([4]; first compound 0.8 µM) was 0.489, the relative viability ([4]; first compound 2.53 µM) was 0.414 and the relative viability ([4]; first compound 8 µM) was 0.425. For the same cell line, the relative viability ([5]; first compound 0.01 µM) was 0.326, the relative viability ([5]; first compound 0.03162 µM) was 0.279 and the relative viability ([5]; first compound 0.1 µM) was 0.359. For the same cell line, the relative viability ([5]; first compound 0.3162 µM) was 0.376 and the relative viability ([5]; first compound 1 µM) was 0.339.
HCC-366 was tested, and the relative viability ([1]; first compound 0.8 µM) was 0.96, the relative viability ([1]; first compound 2.53 µM) was 0.937 and the relative viability ([1]; first compound 8 µM) was 1.04. It also gave a relative viability ([2]; first compound 0.8 µM) of 0.277, a relative viability ([2]; first compound 2.53 µM) of 0.317 and a relative viability ([2]; first compound 8 µM) of 0.14. The relative viability ([3]; first compound 0.8 µM) was 0.16, the relative viability ([3]; first compound 2.53 µM) was 0.182 and the relative viability ([3]; first compound 8 µM) was 0.174. For the same cell line, the relative viability ([4]; first compound 0.8 µM) was 0.506, the relative viability ([4]; first compound 2.53 µM) was 0.325 and the relative viability ([4]; first compound 8 µM) was 0.279. For the same cell line, the relative viability ([5]; first compound 0.01 µM) was 0.377, the relative viability ([5]; first compound 0.03162 µM) was 0.347 and the relative viability ([5]; first compound 0.1 µM) was 0.389. The relative viability ([5]; first compound 0.3162 µM) was 0.503 and the relative viability ([5]; first compound 1 µM) was 0.34.
For HCC-827, the relative viability ([1]; first compound 0.8 µM) was 1.04, the relative viability ([1]; first compound 2.53 µM) was 1.02 and the relative viability ([1]; first compound 8 µM) was 0.922. The relative viability ([2]; first compound 0.8 µM) was 0.209, the relative viability ([2]; first compound 2.53 µM) was 0.187 and the relative viability ([2]; first compound 8 µM) was 0.178. For the same cell line, the relative viability ([3]; first compound 0.8 µM) was 0.266, the relative viability ([3]; first compound 2.53 µM) was 0.246 and the relative viability ([3]; first compound 8 µM) was 0.239. It also gave a relative viability ([4]; first compound 0.8 µM) of 0.874, a relative viability ([4]; first compound 2.53 µM) of 0.842 and a relative viability ([4]; first compound 8 µM) of 0.781. The relative viability ([5]; first compound 0.01 µM) was 1.04, the relative viability ([5]; first compound 0.03162 µM) was 1.05 and the relative viability ([5]; first compound 0.1 µM) was 0.921. The relative viability ([5]; first compound 0.3162 µM) was 0.946 and the relative viability ([5]; first compound 1 µM) was 1.06.
